According to patent US5656622A, “15,15-dialkyl-substituted derivatives of estradiol” (Schering Aktiengesellschaft, priority 1993, dated 1997):

Tests used:
[1] = test system: 17β-hydroxysteroid dehydrogenase from human placenta; assay: stability against 17β-hydroxysteroid dehydrogenase, incubation with placenta microsomes; assay type: in vitro ADME; conditions: NADP 0.5 mmol
Protocol: To determine the stability of estradiol (A) itself as well as of a compound according to the invention, i.e., 15,15-dimethyl-estra-1,3,5(10)-triene-3,17β-diol (B), against 17β-hydroxysteroid dehydrogenase from human placenta, the test substances are incubated with placenta microsomes in the presence of NADP (nicotinamide-adenine-dinucleotide phosphate; 0.5 mmol).
The steroids (initial substrate and product) are extracted and separated by HPLC. For evaluation, the quotients are formed from the electronically integrated peak areas of the corresponding reaction product (namely the assumed 17-keto compound) and the initial substance and plotted against the incubation time (FIG. 1).

estrogen receptor = estrogen receptor binding test; conditions: tissue from rat uteri, 3H-estradiol as reference substance
Protocol: The estrogenic effectiveness of the compounds according to the invention can be shown by the results of the estrogen receptor binding test. In this known in vitro test, tissue from rat uteri is prepared and radioactively-labeled ^3 H-estradiol is used as reference substance. The compound according to the invention 15,15-dimethyl-estra-1,3,5(10)-triene-3,17β-diol accordingly has a competition factor K of 1.5.

In the case of `CC1(C)C[C@H](O)[C@@]2(C)CC[C@@H]3c4ccc(O)cc4CC[C@H]3[C@H]12` [15,15-dimethylestra-1,3,5(10)-triene-3,17β-diol], the “conversion to the 17-keto compound by 17β-hydroxysteroid dehydrogenase (quotient of HPLC peak areas product/initial substance against incubation time, FIG. 1)” value [1] is reported as “only moderate substrate” and the “competition factor K” value (estrogen receptor) is reported as 1.5.
